Source: patent publication US9663562B2, “Compositions and methods for treating cancer” (Dana-Farber Cancer Institute, Inc., priority 2013, dated 2017)

Experiments:
Format in all cases: cell-based, human
[1] = system: MUC16-negative HEK293T cells; test: Growth of MUC16-negative control cells
[2] = system: MUC16-positive ASPC1 pancreatic cancer cells; test: Viable cell number by trypan blue staining, ASPC1 cells; conditions: ASPC1, 5 microM, 5 days, vs control
Protocol: (§1) FIG. 1 illustrates the Effects of MUC16 Inhibitor Peptide (IP-16) on MUC16-positive cancer cells. Human MUC16-positive OVCAR3 ovarian cancer (A), MIAPACA2 pancreatic cancer (B) and ASPC1 pancreatic cancer (C) cells were left untreated (Control) or treated with 5 microM IP-16(RRRRRRRR-CLICGVLVTTRRRKK; SEQ ID NO:5) or CP-16 (RRRRRRRR-ALIAGVLVTTRRRKK; SEQ ID NO:6) for 5 days. Viable cell number was determined by trypan blue staining. The results are expressed as cell number (mean+SD of three determinations).
(§2) Viable cell number was determined by trypan blue staining.

[3] = system: MUC16-positive OVCAR3 ovarian cancer cells; test: Viable cell number by trypan blue staining, OVCAR3 cells; conditions: OVCAR3, 5 microM, 5 days, vs control
Protocol: as §1, §2

[4] = system: MUC16-positive MIAPACA2 pancreatic cancer cells; test: Viable cell number by trypan blue staining, MIAPACA2 cells; conditions: MIAPACA2, 5 microM, 5 days, vs control
Protocol: as §1, §2

RRRRRRRR-CLICGVLVTTRRRKK (RRRRRRRRCLICGVLVTTRRRKK) [IP-16]
effect on growth [1]: little, if any, effect | cell number (viable cells) [2]: significantly reduced | cell number (viable cells) [3]: significantly reduced | cell number (viable cells) [4]: significantly reduced
